Source: patent US10738041B2, “Ferroportin inhibitors” (Vifor (International) AG, priority 2015, dated 2020)

How the values were obtained:
[1] = biological target: T1, human Fpn (Homo sapiens, UniProt Q9NP59); assay: Biophysical Ferroportin-Hepcidin Binding Assay (fluorescence polarization); details: average of multiple measurements; 1 μM human Fpn, 20 nM TMR-hepcidin; read-out: FP IC50
T1 construct: FLAG (C); made in house; host or cells: Pichia pastoris
T1 sequence (Q9NP59 1-571): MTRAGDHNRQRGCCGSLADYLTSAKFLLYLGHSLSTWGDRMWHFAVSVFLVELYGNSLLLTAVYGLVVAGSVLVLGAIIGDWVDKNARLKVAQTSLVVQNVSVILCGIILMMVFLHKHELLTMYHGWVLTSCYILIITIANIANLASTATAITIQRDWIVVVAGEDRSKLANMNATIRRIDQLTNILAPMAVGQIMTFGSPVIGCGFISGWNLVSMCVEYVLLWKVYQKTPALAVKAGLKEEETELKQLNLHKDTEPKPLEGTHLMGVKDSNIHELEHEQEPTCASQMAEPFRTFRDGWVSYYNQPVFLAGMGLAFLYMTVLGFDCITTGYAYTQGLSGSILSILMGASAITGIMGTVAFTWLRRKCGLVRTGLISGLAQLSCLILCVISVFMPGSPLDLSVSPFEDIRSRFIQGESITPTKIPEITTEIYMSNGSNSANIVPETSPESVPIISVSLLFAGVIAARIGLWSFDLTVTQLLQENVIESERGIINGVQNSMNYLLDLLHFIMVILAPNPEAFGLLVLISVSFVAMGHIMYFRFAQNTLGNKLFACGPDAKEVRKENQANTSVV
Protocol: This biophysical assay was developed to confirm inhibition of hepcidin binding to ferroportin (Fpn) more directly. Incubation of TMR-hepcidin with purified human Fpn isolated from Pichia pastoris yeast cells expressing human Fpn with a C-terminal FLAG affinity tag (Bonaccorsi di Patti, 2014) leads to increased fluorescence polarization (FP) of the TMR-hepcidin ligand. Small molecular weight Fpn inhibitors were tested for inhibition of binding of TMR-hepcidin to Fpn, as detected by dose-dependent decrease of the TMR FP signal, as described in detail below.
8 μl of serial dilutions of test compounds were added in duplicates to reach final Fpn and TMR-hepcidin concentrations of 1 μM and 20 nM, respectively. Plates were incubated for 90 minutes at room temperature and parallel (S) and perpendicular (P) fluorescence was measured in a Synergy H1 fluorescence reader (BioTek). FP values were calculated in mP according to the following formula.

[2] = biological target: T2, ferroportin (Fpn) (Mus musculus, UniProt Q9JHI9); assay: Hepcidin Internalization Assay (J774); assay type: cell-based; details: average of multiple measurements; inhibition of TMR-hepcidin (25 nM) internalization into J774 cells; read-out: J774 IC50
T2 construct: host or cells: J774 mouse macrophage cell line, Fe(III)-NTA induced
T2 sequence (Q9JHI9 1-570): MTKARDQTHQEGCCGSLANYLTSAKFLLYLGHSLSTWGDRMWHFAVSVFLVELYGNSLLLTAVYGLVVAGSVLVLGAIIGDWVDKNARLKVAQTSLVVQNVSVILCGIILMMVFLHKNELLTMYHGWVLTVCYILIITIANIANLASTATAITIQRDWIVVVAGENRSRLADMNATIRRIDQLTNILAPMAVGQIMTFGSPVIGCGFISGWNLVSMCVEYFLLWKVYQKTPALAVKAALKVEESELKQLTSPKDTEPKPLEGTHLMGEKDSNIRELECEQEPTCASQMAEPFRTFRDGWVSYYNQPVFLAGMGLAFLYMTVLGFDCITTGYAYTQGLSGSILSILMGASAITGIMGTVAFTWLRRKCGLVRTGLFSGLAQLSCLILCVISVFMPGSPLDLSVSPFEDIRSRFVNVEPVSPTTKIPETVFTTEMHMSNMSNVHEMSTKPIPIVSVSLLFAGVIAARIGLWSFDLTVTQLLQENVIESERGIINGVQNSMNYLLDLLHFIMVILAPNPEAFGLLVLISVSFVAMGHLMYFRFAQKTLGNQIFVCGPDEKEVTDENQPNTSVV
In short: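 Mouse J774 macrophages, loaded overnight with 200 μM Fe(III)NTA, incubated 2 h at 37 °C with test compounds and TMR-labeled hepcidin. Cell-associated TMR fluorescence, a proxy for hepcidin binding to Fpn and internalization, quantified by automated imaging with Hoechst nuclear counterstain after fixation; IC50 from log(inhibitor) vs. response fit, triplicates.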

[3] = biological target: T3, human Fpn-GFP fusion (Homo sapiens, UniProt Q9NP59); assay: Inhibition of ferroportin mediated iron export activity in an iron response assay (BLAzer); assay type: cell-based; details: average of multiple measurements; HEK-293 cell line #354; read-out: BLAzer EC50
T3 construct: expressed in transfected cells; host or cells: HEK-293 cell line #354 (derivative of HEK-293 Tet-ON Advanced, Clontech)
T3 sequence (Q9NP59 1-571): T1 sequence (Q9NP59 1-571)
Description: Intracellular iron levels are indirectly measured in this assay by monitoring the activity of a beta-lactamase (BLA) reporter gene fused to the human ferritin promoter and the associated iron regulatory element (IRE) contained within the 5′ untranslated region of the ferritin mRNA. Expression of ferroportin (Fpn) in such a cell line leads to iron efflux and lower iron levels as reflected by lower activity of the reporter gene. On the other hand, inhibition of Fpn-mediated iron efflux results in elevated cellular iron levels which is detected as increased reporter gene activity. Small molecular weight Fpn inhibitor compounds were tested for dose-dependent effects in this in vitro iron response assay as described below.
The HEK-293 cell line #354 was generated by stable integration of (i) a human Fpn-GFP fusion construct inserted in a derivative of the doxycycline-inducible pTRE-Tight-BI plasmid (Clontech, Cat. 631068) and (ii) a human ferritin promoter-BLA reporter gene into a derivative of the HEK-293 Tet-ON Advanced cell line (Clontech). […] After overnight incubation, 10 μl/well of dilution series of the test compounds were added in quadruplicates and plates were further incubated overnight at 37° C. with 5% CQ. Cells were washed 3 times with HBSS leaving 25 μl per well. BLA activity was detected by adding 5 μl/well of the GeneBlazer reagent CCF4-AM (Invitrogen, Cat. K1085) to the cells. After incubation of the plates in the dark at 18° C. for 60 min., blue and green fluorescence signals were measured in a Safre2 fluorescence plate reader (Tecan) with excitation at 410 nm and emissions at 458 nm (blue) and 522 nm (green). The ratio of blue/green fluorescence as a measure for BLA activity was calculated and EC50 values were determined with the calculated blue/green fluorescence ratios as described for the hepcidin internalization assay.

SMILES | IC50 [1] [µM] | IC50 [2] [µM] | EC50 [3] [µM]
O=C(NCc1ncccc1F)c1cncc(C2CN(CCc3nc4c(F)cccc4[nH]3)C2)c1 [compound 248] | 0.306 | 0.363 | 6.34
O=C(NCc1ncccc1F)c1cncc(CCNCCc2nc3ccccc3[nH]2)c1 [compound 229] | 0.043 |  | 4.06
O=C(c1csc(CCNCc2nc3ccccc3[nH]2)n1)N1CCc2ccccc2C1 [Example 15] | 1.47 | 1.6 | 2.22
O=C(NCc1ncccn1)c1csc(CCNCc2nc3ccccc3[nH]2)n1 [Example 61] | 1.69 | 0.56 | 37.5
Cc1ccc2[nH]c(CNCCc3nc(C(=O)NCc4ccccc4)cs3)nc2c1 [Example 32] | 1.21 | 2.6 | 1.87
Cn1ccnc1CNCCc1nc(C(=O)NCc2ccccc2)cs1 [Example 2] | 10.6 | 6.3 | 1.64
O=C(NCc1ccc(F)cn1)c1csc(CCNCc2nc3ccccc3[nH]2)n1 [Example 43] | 1.52 | 0.25 | 30.9
Cc1c(CNC(=O)c2csc(CCNCc3nc4ccccc4[nH]3)n2)cnn1C [Example 100] | 1.42 | 0.46 | 6.56
O=C(NCc1ccccc1)c1csc(CCNCCc2nc3ccccc3[nH]2)n1 [Example 29] | 0.136 | 0.51 | 2.53
O=C(CCNCCc1nc2ccccc2[nH]1)NCC(=O)NCc1ncccc1F [compound 190] | 0.66 | 0.74 | 27.3
Cc1cc(C)c(CNC(=O)c2csc(CCNCc3nc4ccccc4[nH]3)n2)cn1 [Example 105] | 0.42 | 0.077 | 2.63
O=C(NCc1ncccc1F)c1cncc(CCNCc2nc3ccccc3[nH]2)c1 [compound 221] | 0.147 | 0.36 | 16.9
Cn1ccc(CNC(=O)c2csc(CCNCc3nc4ccccc4[nH]3)n2)n1 [Example 86] | 4.96 | 0.48 | 22.3
O=C(NCc1ccccc1)c1csc(CCNCc2nc3cc(C(F)(F)F)ccc3[nH]2)n1 [Example 51] | 0.53 | 0.36 | 4.47
CN1CCN(c2ccccc2CNC(=O)c2csc(CCNCc3nc4ccccc4[nH]3)n2)CC1 [Example 68] | 4.06 | 2.5 | 10.4
O=C(NCc1ncccc1Cl)c1ncn(CCNCc2nc3ccccc3[nH]2)n1 [Example 170] | 0.28 | 0.482 | 3.96
O=C(NCC1CCCCC1)c1csc(CCNCc2nc3ccccc3[nH]2)n1 [Example 13] | 0.53 | 1.7 | 27
O=C(NCc1ncccc1F)c1cc(CCNCc2nc3ccccc3[nH]2)ccn1 [compound 232] | 0.267 | 1.9 | 12
Cc1ccc(F)c(CNC(=O)c2csc(CCNCc3nc4ccccc4[nH]3)n2)n1 [Example 79] | 0.82 | 0.037 | 0.84
O=C(c1csc(CCNCc2nc3ccccc3[nH]2)n1)N1CCc2ncccc2C1 [Example 107] | 5.74 | 1.32 | 21
O=C(NCc1ccccc1)c1cccc(CCNCc2nc3ccccc3[nH]2)c1 [Example 67] | 3.4 | 0.53 | 33.5
N#Cc1ccccc1CNC(=O)c1csc(CCNCc2nc3ccccc3[nH]2)n1 [Example 71] | 0.508 | 0.24 | 1.79
O=C(NCc1ncc(F)cc1F)c1csc(CCNCc2nc3ccccc3[nH]2)n1 [Example 108] | 0.478 | 0.13 | 4.12
O=C(NCc1ccccc1)c1csc(CCNCc2cc3ccccc3[nH]2)n1 [Example 24] |  | 2.8 | 12.8
C=C(C)c1sc(CCNCc2nc3ccccc3[nH]2)nc1C(=O)NCc1ncccc1F [Example 177] | 15.4 | 4.2 | 
O=C(NCc1cccnc1)c1csc(CCNCc2nc3ccccc3[nH]2)n1 [Example 35] | 2.16 | 0.19 | 
O=C(NCc1ccccn1)c1csc(C2CCN(CCc3nc4ccccc4[nH]3)C2)n1 (stereo not shown) [Example 215] | 15.6 | 27.7 | 
O=C(NCc1cccs1)c1csc(CCNCc2nc3ccccc3[nH]2)n1 [Example 16] | 1.72 | 0.9 | 
CC(NC(=O)c1csc(CCNCc2nc3ccccc3[nH]2)n1)c1ccccc1 (stereo not shown) [Example 73] | 1 | 0.37 | 
N#Cc1ccc2[nH]c(CCNCCc3nc(C(=O)NCc4ncccc4F)co3)nc2c1 [Example 265] |  | 0.07 | 2
